Source: PMC4659430 (Journal of biomolecular screening, 2015)
“Also recorded” adds a separate entry of the source.

How the values were obtained:
Type in all cases: cell-based
human M4 (hM4) [1] = molecular target: T1, human M4 (hM4) (Homo sapiens, UniProt P08173); test: M4 multiparametric FLIPR calcium assay, PAM mode; conditions: compound tested at 3 µM, versus EC20 acetylcholine
T1 sequence (P08173 1-479): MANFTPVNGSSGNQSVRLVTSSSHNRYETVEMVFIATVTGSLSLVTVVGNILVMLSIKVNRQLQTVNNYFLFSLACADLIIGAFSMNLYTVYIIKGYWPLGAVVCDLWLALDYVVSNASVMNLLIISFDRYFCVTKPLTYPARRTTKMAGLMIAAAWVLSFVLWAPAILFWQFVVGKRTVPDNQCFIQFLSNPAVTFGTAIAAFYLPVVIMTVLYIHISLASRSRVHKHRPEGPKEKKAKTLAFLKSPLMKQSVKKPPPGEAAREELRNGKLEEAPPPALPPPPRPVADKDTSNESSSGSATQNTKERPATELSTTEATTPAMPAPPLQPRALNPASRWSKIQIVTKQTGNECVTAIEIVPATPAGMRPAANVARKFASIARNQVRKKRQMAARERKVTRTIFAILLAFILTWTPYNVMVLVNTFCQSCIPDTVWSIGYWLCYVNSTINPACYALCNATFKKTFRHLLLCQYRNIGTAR

human M4 (hM4) [2] = molecular target: T1, human M4 (hM4); test: M4 multiparametric FLIPR calcium assay, agonist mode; conditions: compound tested at 3 µM, versus DMSO
human M4 (hM4) [3] = molecular target: T1, human M4 (hM4); test: M4 multiparametric FLIPR calcium assay, antagonist mode; conditions: compound tested at 3 µM, versus EC80 acetylcholine

Row | Structure (SMILES) | response in PAM mode (kinetic trace) (human M4 (hM4) [1]) | response in agonist mode (kinetic trace) (human M4 (hM4) [2]) | response in antagonist mode (kinetic trace) (human M4 (hM4) [3])
1 | COc1ccc(CNC(=O)c2sc3nc(C)cc(C)c3c2N)cc1 [ML108] | classified as PAMs | active; also recorded: yielded responses in the agonist mode | –
2 | C/C=C(/C)C(=O)O[C@H]1C(C)=C2[C@H]([C@@H]1OC(=O)CCCCCCC)[C@@](C)(OC(C)=O)C[C@H](OC(=O)CCC)[C@@]1(O)[C@H]2OC(=O)[C@@]1(C)O [thapsigargin] | hit in all modes | hit in all modes | hit in all modes
